Like-named read-outs stand apart in the source and are kept apart here.
How the values were obtained:
Assay type in all cases: in vivo
Glycine max (GLXMA) = conditions: pre-emergence, crop plant compatibility, in comparison to untreated controls
How it was run: (§1)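 Scoring: visual, % of untreated control, about 3 weeks after a pre-emergence application to the soil surface. Application used WP or EC formulations diluted in water with 0.5% additive at 600 l/ha; dosage levels are marked by suffixes a, b and c.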

Zea mays (ZEAMX) [1] = conditions: pre-emergence, crop plant compatibility, in comparison to untreated controls
How it was run: as §1

Oryza sativa (ORYSA) [2] = conditions: pre-emergence, crop plant compatibility, in comparison to untreated controls
How it was run: as §1

[3] = system: Amaranthus retroflexus (AMARE); assay: Post-emergence herbicidal action against AMARE
How it was run: (§2)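 Values are percent visual activity (0% like control, 100% plants dead) after about 3 weeks in the greenhouse. Treatment: post-emergence spray at one-leaf stage, 600 l/ha spray volume, 0.5% additive, doses 320 g/ha or lower.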

[4] = system: Amaranthus retroflexus (AMARE); assay: Pre-emergence herbicidal action against AMARE; conditions: 320 g/ha, visual scoring after about 3 weeks vs untreated controls
How it was run: (§3)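 Read-out is visual percent damage relative to untreated pots, with 100% meaning dead plants and 0% meaning no difference, assessed roughly three weeks after treatment. Compounds were applied pre-emergence to the covering soil at up to 320 g/ha.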

[5] = system: Triticum aestivum (TRZAS); conditions: crop plant compatibility, 80 g/ha, effect vs untreated controls
How it was run: (§4)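 One-leaf-stage crops (2–3 wk post-sowing, sandy loam, greenhouse) sprayed on green parts; 0.5% additive, 600 l/ha water. Rated by eye ~3 wk later, % vs untreated; suffixes a/b/c mark different dosages.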

Zea mays (ZEAMX) [6] = conditions: crop plant compatibility, effect vs untreated controls
How it was run: as §4

Oryza sativa (ORYSA) [7] = conditions: crop plant compatibility, effect in comparison to untreated controls
How it was run: as §4

[8] = system: Verconica persica (VERPE); assay: Post-emergence herbicidal action against VERPE; conditions: 320 g/ha, VERPE
How it was run: as §2

Viola tricolor (VIOTR) [9] = assay: Post-emergence herbicidal action against VIOTR
How it was run: as §2

[10] = system: Alopecurus myosuroides (ALOMY); assay: Post-emergence herbicidal action against ALOMY; conditions: 320 g/ha, visual rating about 3 weeks after treatment vs untreated controls (100% = plants have died, 0% = like control plants)
How it was run: as §2

[11] = system: Polygonum convolvulus (POLCO); assay: Post-emergence herbicidal action against POLCO
How it was run: as §2

[12] = system: Digitaria sanguinalis (DIGSA); assay: Post-emergence herbicidal action against DIGSA; conditions: 320 g/ha, visual rating about 3 weeks after treatment
How it was run: as §2

[13] = system: Polygonum convolvulus (POLCO); assay: Pre-emergence herbicidal action against POLCO; conditions: dosage 320 g/ha
How it was run: as §3

Viola tricolor (VIOTR) [14] = assay: Pre-emergence herbicidal action against VIOTR; conditions: 320 g/ha, Viola tricolor
How it was run: as §3

[15] = system: Pharbitis purpurea (PHBPU); assay: Post-emergence herbicidal action against PHBPU; conditions: dosage 320 g/ha
How it was run: as §2

[16] = system: Alopecurus myosuroides (ALOMY); assay: Pre-emergence herbicidal action against ALOMY; conditions: 320 g/ha; scored visually after about 3 weeks; 100% = plants have died
How it was run: as §3

Lolium rigidum (LOLRI) [17] = assay: Pre-emergence herbicidal action against LOLRI; conditions: dosage 320 g/ha
How it was run: as §3

[18] = system: Digitaria sanguinalis (DIGSA); assay: Pre-emergence herbicidal action against DIGSA; conditions: dosage 320 g/ha
How it was run: as §3

Lolium rigidum (LOLRI) [19] = assay: Post-emergence herbicidal action against LOLRI; conditions: dosage 320 g/ha
How it was run: as §2

[20] = 320 g/ha, visual rating about 3 weeks after treatment

Structure (SMILES)	Pre-emergence action against GLXMA in % (Glycine max (GLXMA); 80 g/ha)	Pre-emergence action against ZEAMX in % (Zea mays (ZEAMX) [1]; 80 g/ha)	Pre-emergence action against ORYSA in % (Oryza sativa (ORYSA) [2]; 80 g/ha)	Pre-emergence action against ORYSA in % (Oryza sativa (ORYSA) [2]; 320 g/ha)	Post-emergence action against AMARE in % [3, 20]	Pre-emergence action against AMARE in % [4]	Post-emergence action against ZEAMX in % (Zea mays (ZEAMX) [6]; 80 g/ha)	Post-emergence action against ORYSA in % (Oryza sativa (ORYSA) [7]; 80 g/ha)	Post-emergence action against ORYSA in % (Oryza sativa (ORYSA) [7]; 320 g/ha)	Post-emergence action against VIOTR in % (Viola tricolor (VIOTR) [9]; 320 g/ha)	Post-emergence action against ALOMY in % [10]	Post-emergence action against POLCO in % ([11]; dosage 320 g/ha)	also measured
C[C@H](NC(=O)COc1nn(-c2ccnc(F)c2)c(-c2ccc(F)nc2)c1Br)C(=O)O [III-25]	0%	20%	0%	0%	80%	80%	0%	0%	0%	–	–	–	Post-emergence action against TRZAS in % [5]: 0%; Post-emergence action against ZEAMX in % (Zea mays (ZEAMX) [6]; 320 g/ha): 0%
C[C@@H](Oc1nn(-c2ccnc(Cl)c2)c(-c2ccc(F)nc2)c1Br)C(=O)O [III-30]	20%	0%	10%	20%	90%	–	20%	10%	20%	80%	80%	90%	Post-emergence action against VERPE in % [8]: 80%; Pre-emergence action against GLXMA in % (Glycine max (GLXMA); 320 g/ha): 20%; Pre-emergence action against ZEAMX in % (Zea mays (ZEAMX) [1]; 320 g/ha): 10%; Post-emergence action against AMARE in % ([3]; 80 g/ha, visual rating about 3 weeks after treatment vs untreated controls (100% = plants have died, 0% = like control plants)): 80%
COC(=O)CCOC(=O)[C@@H](C)Oc1nn(-c2ccccn2)c(-c2ccc(Cl)nc2)c1Br [Example I-244]	0%	0%	–	–	–	90%	20%	–	0%	80%	80%	80%	Post-emergence action against DIGSA in % [12]: 80%; Pre-emergence action against POLCO in % [13]: 80%; Pre-emergence action against VIOTR in % (Viola tricolor (VIOTR) [14]): 90%; Post-emergence action against PHBPU in % [15]: 80%; Pre-emergence action against ALOMY [16]: 90%; Post-emergence action against VIOTR in % (Viola tricolor (VIOTR) [9]; 80 g/ha): 80%; Post-emergence action against POLCO in % ([11]; dosage 80 g/ha): 80%; Pre-emergence action against LOLRI in % (Lolium rigidum (LOLRI) [17]): 100%; Pre-emergence action against DIGSA in % [18]: 90%; Post-emergence action against LOLRI in % (Lolium rigidum (LOLRI) [19]): 80%
